# Tests used:
# MMP-9 = assay: Gelatin zymography: LPS-activated active expression of MMP-9 in NR8383 cells; format: cell-based, rat; settings: Table 5, LPS 1 μg/mL, 24 hours
# Source text: As indicated above, when an inflammatory response occurs in animal's pulmonary tissue, the active inflammatory cells will secret MMPs that will destroy the pulmonary tissue structure, cause more serious pulmonary injury, and lead to the decrement in or the loss of pulmonary functions. […]
# Thereafter, the medium of each group was collected and respectively subjected to the following procedures. A 10% polyacrylamide gel containing 0.2% gelatin was used to carry out the sodium dodecyl sulfate polyacrylamide gel electrophoresis (SDS-PAGE). After the electrophoresis was completed, the gel was sequentially soaked in 2.5% Triton X-100 solution for 90 minutes to remove SDS, soaked in distillation-distillation water (ddH2O) for 30 minutes, and placed in a reaction solution (50 mM Tris-HCl buffer containing 10 mM CaCl2 and 0.02% NaN3) at a temperature of 37° C. for 18 hours. After the foregoing reaction was completed, the gel was stained by a Coomassie blue staining solution, and the image of stained gel was taken and subjected to an image analysis. The image intensity (the image intensity was calculated based on the size of area and the shade of color) of highlight band (i.e., the gelatin in this area was degraded by MMPs, wherein the area locating around 95 kD molecular weight) on the gel of each group can reflect the active expression of MMP-9 of rat alveolar macrophage NR8383 cells under different conditions (the relative active expression of MMP-9 was calculated by serving the results of the blank group as 0% and serving that of the control group as 100%).
# Rat alveolar macrophage NR8383 cells were divided into twenty-eight groups and separately cultivated with the following media for 24 hours: • (1) Blank group: a macrophage growth medium; • (2) Control group: a macrophage growth medium containing 1 μg/mL LPS; • (3) Positive control group: a macrophage growth medium containing 1 μg/mL LPS and 5 μM Prednisolone (a type of corticosteroid; abbreviated as “Pred”; purchased from Sigma-Aldrich); • (4) Extract C (including five sub-groups): a macrophage growth medium containing 1 μg/mL LPS and the extract C provided by [preparation example A-3-2], wherein the extract C is present in the five sub-groups at a concentration of […] respectively; • (5) Extract D (including five sub-groups): a macrophage growth medium containing 1 μg/mL UPS and the extract D provided by [preparation example A-4-2], wherein the extract D is present in the five sub-groups at a concentration of 0.78, 1.56, 3.13, 6.25 and 12.5 respectively; • (6) Extract E (including five sub-groups): a macrophage growth medium containing 1 μg/mL LPS and the extract E provided from [preparation example A-4-3], wherein the extract E is present in the five sub-groups at a concentration of 0.78, 1.56, 3.13, […], and 12.5 respectively; • (7) DATA group (including five sub-groups): a macrophage growth medium containing 1 μg/mL LPS and the dehydrotrametenolic acid (DTTA) provided by [preparation example C-1], wherein the dehydrotrametenolic acid (DTTA) is present in the five sub-groups at a concentration of 0.39, 0.78, 1.56, 3.13 and 6.25 μg/mL respectively; and • (8) PAA group (including live sub-groups): a macrophage growth medium containing 1 μg/mL LPS and the poricoic acid A (PAA) provided from [preparation example C-1], wherein the poricoic acid A (PAA) is present in the five sub-groups at a concentration of 6.25, 12.5, 25, 50 and 100 respectively.
# Thereafter, the medium of each group was collected and analyzed by the analyzing procedures same as that of (1-1).
# Mucin 5AC = assay: Western blot: LPS-induced expression of Mucin 5AC in NCI-H929 cells; format: cell-based, human; settings: 1 μg/mL LPS, 24 hours, vs control group
# Source text: As indicated above, the hypersecretion of mucus in airway can be observed in the patients suffering from pulmonary injury-related diseases, such as chronic obstructive pulmonary disease and emphysema, and the mucus hypersecretion is associated with the overexpression of mucins in pulmonary tissue. Symptoms like the increased sputum production will occur in the patients suffering from the mucin hypersecretion in airway, and the increased sputum will accumulate in the airway and lung, thereby making the airway narrow and increasing respiratory resistance. To investigate the effects of active ingredients of FU-LING extract in regulating, preventing, and/or treating the pulmonary injury-related diseases, such as chronic obstructive pulmonary disease and emphysema, a Western blot was conducted to measure the inhibitory rate of active ingredients of FU-LING extract (tumulosic acid and poricoic acid A) on the LPS-induced expression of Mucin 5AC in human lung epithelial NCI-H929 cells.
# Human lung epithelial NCI-H929 cells were divided into ten groups and separately cultivated with the following media for 24 hours:
# (1) Control group: an epithelial cell growth medium containing […];
# (2) Positive control group: an epithelial cell growth medium containing 1 μg/mL LPS and 10 μM Dex;
# (3) TA group (including four sub-groups): an epithelial cell growth medium containing […] the tumulosic acid (TA) provided by [preparation example C-1], wherein the tumulosic acid (TA) is present in the four sub-groups at a concentration of 1.56, 3.13, 6.25 and 12.5 μg/mL respectively; and
# (4) PAA group (including four sub-groups): an epithelial cell growth medium containing 1 μg/mL LPS the poricoic acid A (PAA) provided by [preparation example C-1], wherein the poricoic acid A (PAA) is present in the four sub-groups at a concentration of 6.25, 12.5, 25 and 50 μg/mL respectively.
# Thereafter, the proteins in the cells of each group were extracted and then subjected to a Western blot to measure the expression level of Mucin 5AC. The relative expression level of Mucin 5AC of each group was calculated by using the results of the control group as a basis (i.e., the expression level of control group was served as 1-fold).
compound,measurement,setting,value
"C=C(CC[C@@H](C(=O)O)[C@H]1[C@H](O)C[C@@]2(C)C3=CC[C@@H](C(=C)C)[C@](C)(CCC(=O)O)C3=CC[C@]12C)C(C)C [PAA, poricoic acid A]",Relative active expression of MMP-9 (%),MMP-9; 6.25 μg/mL,82%
same,Relative active expression of MMP-9 (%),MMP-9; 12.5 μg/mL,77%
same,Relative active expression of MMP-9 (%),MMP-9; 25 μg/mL,60%
same,Relative active expression of MMP-9 (%),MMP-9; 50 μg/mL,35%
same,Relative active expression of MMP-9 (%),MMP-9; 100 μg/mL,18%
same,Inhibitory rate on LPS-induced expression of Mucin 5AC,Mucin 5AC; 6.25 μg/mL (low-dose),up to 63%
same,Inhibitory rate on LPS-induced expression of Mucin 5AC,Mucin 5AC; 50 μg/mL (high-dose),≤ 87%

# — US10973863B2, “Method for regulating, preventing and/or treating pulmonary injury” (SINPHAR PHARMACEUTICAL CO., LTD., priority 2017, dated 2021)
